# Test system: alpha-1 antitrypsin (A1AT) in the gut wash
# Assay: A1AT in the gut wash by ELISA as marker of intestinal permeability / barrier disruption in rotavirus-infected suckling rats
# Assay type: in vivo, rat
# Conditions: compared to both the RV and REF groups (p<0.05), 3rd day of the diarrheal period (peak of diarrhea)
# Experimental: Newborn rats were distributed into five groups of 24 animals each: the reference (REF) group, rotavirus-infected (RV) group, and 3 rotavirus-infected groups supplemented with: a) a mixture of scGOS and lcFOS (RV+GOS/FOS group); b) 2′-FL (RV+2′-FL group); and c) both scGOS/lcFOS and 2′-FL (RV+GOS/FOS+2′-FL group).
# Suckling rats were orally administered once daily with the same normalized volume/body weight of all products (4.5 μL/g/day), from the second to the sixteenth day of life, corresponding to the strict lactation period. The RV+GOS/FOS group was supplemented with 0.8 g of scGOS/lcFOS/100 g of body weight. The RV+2′-FL group was supplemented with 0.2 g of 2′-FL/100 g of body weight. The RV+GOS/FOS+2′-FL group received both products at the same doses as when given separately and maintaining the volume of administration (4.5 μL/g/day). The REF and RV groups were administered with a matched volume of water. […]
# The quantification of A1AT in the gut wash, as a marker of intestinal permeability, was performed with the rat SERPINA1/Alpha 1 Antitrypsin ELISA kit (LifeSpan Biosciences Inc., Seattle, Wash., USA) following the manufacturer's instructions. […]
substance,measurement,setting,value
2′-fucosyllactose [2′-FL],concentration of A1AT in the gut wash,,reduced
same,concentration of A1AT in the gut wash,listed as 2′-fucosyllactose,significant reduction
